Measured values from the supplement of paper PMC11061612.

What was measured:
[1] = tested on: CAL-51 (Breast Carcinoma); assay: Bliss excess, mean over the matrix (fraction); higher = more synergy
Method in brief: (§1)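 Bliss excess equals the observed combination effect minus the expected value EA + EB − EA·EB, where EA and EB are the effects of each agent alone. Combination Emax is the second-highest inhibition within the matrix. Inhibition was scaled from CellTiter-Glo 2.0 luminescence, with 0 set by vehicle wells and 1 by blank wells, after 72 hours of two-drug dosing of cells plated in 1536-well plates.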

[2] = tested on: OVCAR-8 (Ovarian Carcinoma); assay: as above
Method in brief: as §1

[3] = tested on: PCI-30 (Head and Neck Carcinoma); assay: as above
Method in brief: as §1

[4] = tested on: RT-112 (Bladder Carcinoma); assay: as above
Method in brief: as §1

[5] = tested on: CAL-54 (Kidney Carcinoma); assay: combination Emax (second highest fraction inhibited in the dose matrix, 72 h); higher = more inhibition; extreme values may be limits of the assay
Method in brief: as §1

[6] = tested on: CAPAN-1 (Pancreatic Carcinoma); assay: as above
Method in brief: as §1

COLO-829 (Melanoma) = assay: as above
Method in brief: as §1

[7] = tested on: HARA (Squamous Cell Lung Carcinoma); assay: as above
Method in brief: as §1

[8] = tested on: HCC-15 (Squamous Cell Lung Carcinoma); assay: as above
Method in brief: as §1

HMV-II (Melanoma) = assay: as above
Method in brief: as §1

[9] = tested on: KARPAS-231 (B-Cell Non-Hodgkin's Lymphoma); assay: as above
Method in brief: as §1

[10] = tested on: LB771-HNC (Head and Neck Carcinoma); assay: as above
Method in brief: as §1

[11] = tested on: LU-139 (Small Cell Lung Carcinoma); assay: as above
Method in brief: as §1

[12] = tested on: MHH-PREB-1 (B-Cell Non-Hodgkin's Lymphoma); assay: as above
Method in brief: as §1

NB14 (Neuroblastoma) = assay: as above
Method in brief: as §1

NCI-H28 (Mesothelioma) = assay: as above
Method in brief: as §1

[13] = tested on: NCI-H69 (Small Cell Lung Carcinoma); assay: as above
Method in brief: as §1

[14] = tested on: RPMI-6666 (Non-Cancerous); assay: as above
Method in brief: as §1

[15] = tested on: SK-OV-3 (Ovarian Carcinoma); assay: as above
Method in brief: as §1

[16] = tested on: SW1271 (Small Cell Lung Carcinoma); assay: as above
Method in brief: as §1

SMILES | Bliss excess [1] | Bliss excess [2] | Bliss excess [3] | Bliss excess [4] | combination Emax [5] | combination Emax [6] | combination Emax (COLO-829 (Melanoma)) | combination Emax [7] | combination Emax [8] | combination Emax (HMV-II (Melanoma)) | combination Emax [9] | combination Emax [10] | combination Emax [11] | combination Emax [12] | combination Emax (NB14 (Neuroblastoma)) | combination Emax (NCI-H28 (Mesothelioma)) | combination Emax [13] | combination Emax [14] | combination Emax [15] | combination Emax [16]
Cc1c2c(nn1C)CSCc1cc(n(C)n1)CSc1cc(c3ccccc3c1)OCCCc1c(C(=O)O)n(C)c3c-2c(Cl)ccc13 [AZD5991] + Cc1cc2ncnn2cc1Nc1ncc2c(n1)n(C1CCOCC1)c(=O)n2C [AZD7648] (first compound max 1 µM, 7x7, partner max 10 µM) | -0.0529 | -0.0129 | -0.0572 | -0.0298 | 0.367 | 0.267 | 0.144 | 0.394 | 0.207 | 0.273 | 1 | 0.571 | 0.243 | 0.175 | 0.72 | 0.298 | 0.283 | 0.541 | 0.483 | 0.305
Cc1c2c(nn1C)CSCc1cc(n(C)n1)CSc1cc(c3ccccc3c1)OCCCc1c(C(=O)O)n(C)c3c-2c(Cl)ccc13 [AZD5991] + C=CCn1c(=O)c2cnc(Nc3ccc(N4CCN(C)CC4)cc3)nc2n1-c1cccc(C(C)(C)O)n1 [AZD1775] (first compound max 1 µM, partner max 1 µM) | 0.045 | -0.0075 | 0.0371 | 0.0566 | 0.702 | 0.465 | 0.291 | 0.89 | 0.55 | 0.487 | 1 | 0.745 | 0.555 | 0.853 | 1 | 0.416 | 0.266 | 0.93 | 0.597 | 0.582
C[C@@H](c1ccc2nccn2c1)n1nnc2ncc(-c3cnn(C)c3)nc21 [Savolitinib] + CC1(C)CCC(CN2CCN(c3ccc(C(=O)NS(=O)(=O)c4ccc(NCC5CCOCC5)c([N+](=O)[O-])c4)c(Oc4cnc5[nH]ccc5c4)c3)CC2)=C(c2ccc(Cl)cc2)C1 [Venetoclax] (first compound max 1 µM, 7x7, partner max 1 µM) | -0.0522 | -0.035 | -0.0899 | -0.046 | 0.143 | 0.181 | 0.209 | 0.122 | 0.175 | 0.12 | 0.866 | 0.115 | 0.281 | 0.0731 | 0.114 | 0.181 | 0.372 | 0.243 | 0.121 | 0.161
Cc1c2c(nn1C)CSCc1cc(n(C)n1)CSc1cc(c3ccccc3c1)OCCCc1c(C(=O)O)n(C)c3c-2c(Cl)ccc13 [AZD5991] + CCN(CCO)CCCOc1ccc2c(Nc3cc(CC(=O)Nc4cccc(F)c4)[nH]n3)ncnc2c1 [AZD2811] (first compound max 1 µM, 7x7, partner max 1 µM) | 0.112 | 0.0412 | 0.0256 | 0.125 | 0.234 | 0.206 | 0.269 | 0.776 | 0.783 | 0.4 | 1 | 0.591 | 0.409 | 0.144 | 0.953 | 0.342 | 0.623 | 0.797 | 0.301 | 0.176
CC(=O)c1c(C)c2cnc(Nc3ccc(N4CCNCC4)cn3)nc2n(C2CCCC2)c1=O [Palbociclib] + Cn1cnc2c(F)c(Nc3ccc(Br)cc3Cl)c(C(=O)NOCCO)cc21 [Selumetinib] (first compound max 10 µM, 7x7, partner max 10 µM) | 0.0035 | -0.0412 | -0.0814 | -0.0333 | 0.616 | 0.382 | 0.614 | 0.499 | 0.547 | 0.809 | 0.264 | 0.194 | 0.282 | 0.445 | 0.705 | 0.379 | 0.487 | 0.65 | 0.237 | 0.428
COc1nnc2ccc(N3CCC(c4ccc(OCCN5CCN(C)C(=O)[C@H]5C)cc4)CC3)nn12 [AZD5153] + C[C@@H]1COCCN1C2=NC(=NC(=C2)C3(CC3)[S@](=N)(=O)C)C4=C5C=CNC5=NC=C4 [AZD6738] (first compound max 1 µM, 7x7, partner max 10 µM) | 0.0189 | 0.0047 | -0.014 | 0.0298 | 0.823 | 0.54 | 0.259 | 0.832 | 0.513 | 0.712 | 0.752 | 0.739 | 0.947 | 0.893 | 0.97 | 0.659 | 0.735 | 0.834 | 0.481 | 0.57
CC1(C)CCC(CN2CCN(c3ccc(C(=O)NS(=O)(=O)c4ccc(NCC5CCOCC5)c([N+](=O)[O-])c4)c(Oc4cnc5[nH]ccc5c4)c3)CC2)=C(c2ccc(Cl)cc2)C1 [Venetoclax] + C1CN(CCC1(C(=O)N[C@@H](CCO)C2=CC=C(C=C2)Cl)N)C3=NC=NC4=C3C=CN4 [Capivasertib] (first compound max 1 µM, 7x7, partner max 3 µM) | -0.0879 | -0.0504 | -0.0216 | -0.0313 | 0.325 | 0.184 | 0.16 | 0.645 | 0.232 | 0.236 | 0.796 | 0.248 | 0.31 | 0.176 | 0.95 | 0.216 | 0.802 | 0.963 | 0.353 | 0.262
CN(C)CCCOc1ccc(-c2ccc3ncc4c(c3c2)n(C2CCOCC2)c(=O)n4C)cn1 [AZD0156] + C[C@@H]1COCCN1C2=NC(=NC(=C2)C3(CC3)[S@](=N)(=O)C)C4=C5C=CNC5=NC=C4 [AZD6738] (first compound max 1 µM, 7x7, partner max 10 µM) | 0.0198 | 0.0296 | 0.0081 | 0.0798 | 0.65 | 0.368 | 0.159 | 0.908 | 0.146 | 0.335 | 0.904 | 0.48 | 0.278 | 0.909 | 0.979 | 0.452 | 0.448 | 0.861 | 0.617 | 0.595
NC1(C(=O)N[C@@H](CCO)c2ccc(Cl)cc2)CCN(c2ncnc3[nH]ccc23)CC1 [Capivasertib] + Cn1cnc2c(F)c(Nc3ccc(Br)cc3Cl)c(C(=O)NOCCO)cc21 [Selumetinib] (first compound max 10 µM, 7x7, partner max 10 µM) | 0.0176 | 0.037 | -0.0097 | 0.01 | 0.611 | 0.476 | 0.818 | 0.607 | 0.693 | 0.838 | 0.0035 | 0.51 | 0.0716 | 0.205 | 0.313 | 0.404 | 0.466 | 0.737 | 0.473 | 0.674
CC1(C)CCC(CN2CCN(c3ccc(C(=O)NS(=O)(=O)c4ccc(NCC5CCOCC5)c([N+](=O)[O-])c4)c(Oc4cnc5[nH]ccc5c4)c3)CC2)=C(c2ccc(Cl)cc2)C1 [Venetoclax] + CCN(CCO)CCCOc1ccc2c(Nc3cc(CC(=O)Nc4cccc(F)c4)[nH]n3)ncnc2c1 [AZD2811] (first compound max 1 µM, 7x7, partner max 1 µM) | 0.046 | 0.0431 | -0.0231 | 0.045 | 0.251 | 0.206 | 0.127 | 0.714 | 0.781 | 0.263 | 1 | 0.186 | 0.668 | 0.187 | 1 | 0.255 | 0.824 | 0.991 | 0.205 | 0.174
CCN(CCO)CCCOc1ccc2c(Nc3cc(CC(=O)Nc4cccc(F)c4)[nH]n3)ncnc2c1 [AZD2811] + C=CCn1c(=O)c2cnc(Nc3ccc(N4CCN(C)CC4)cc3)nc2n1-c1cccc(C(C)(C)O)n1 [AZD1775] (first compound max 1 µM, partner max 1 µM) | 0.0511 | 0.0213 | 0.0191 | 0.0233 | 0.622 | 0.416 | 0.274 | 0.788 | 0.723 | 0.473 | 0.993 | 0.359 | 0.567 | 0.718 | 1 | 0.278 | 0.602 | 0.902 | 0.434 | 0.586
CC1(C)CCC(CN2CCN(c3ccc(C(=O)NS(=O)(=O)c4ccc(NCC5CCOCC5)c([N+](=O)[O-])c4)c(Oc4cnc5[nH]ccc5c4)c3)CC2)=C(c2ccc(Cl)cc2)C1 [Venetoclax] + CN(C)CCCOc1ccc(-c2ccc3ncc4c(c3c2)n(C2CCOCC2)c(=O)n4C)cn1 [AZD0156] (first compound max 1 µM, 7x7, partner max 1 µM) | 0.0064 | -0.0089 | -0.0665 | -0.0232 | 0.239 | 0.184 | 0.21 | 0.651 | 0.215 | 0.289 | 0.816 | 0.124 | 0.374 | 0.14 | 0.98 | 0.193 | 0.548 | 0.976 | 0.239 | 0.207
COc1cccc2c1C(=O)c1c(O)c3c(c(O)c1C2=O)C[C@@](O)(C(=O)CO)C[C@@H]3O[C@H]1C[C@H](N)[C@H](O)[C@H](C)O1 [Doxorubicin] + Cc1cc2ncnn2cc1Nc1ncc2c(n1)n(C1CCOCC1)c(=O)n2C [AZD7648] (first compound max 1 µM, 7x7, partner max 10 µM) | 0.121 | 0.061 | 0.006 | 0.151 | 0.802 | 0.511 | 0.73 | 0.808 | 0.284 | 0.907 | 0.956 | 0.193 | 0.905 | 0.974 | 0.887 | 0.605 | 0.747 | 0.971 | 0.638 | 0.768
